For the experiment, the system named is HBV. Nature of the experiment: Anti-HBV activity in vitro: extracellular HBV DNA by qPCR in HepAD38 cells. Format: cell-based. Conditions: Hepatitis B virus, 96 hours incubation, extracellular HBV DNA by direct qPCR, read-out: HBV inh EC50. The text has this: HepAD38 cell line (Ladner et al., Antimicrob Agents Chemother, 1997, 41, 1715-20) was used for HBV inhibition assays. HepAD38 is a subclone, derived from Hepatoblastoma cell line HepG2 (ATCC® Number: HB-8065™), that expresses HBV genome under the transcriptional control of a tetracycline-responsive promoter in a TET-OFF system: addition of tetracycline (TET) or doxycycline suppresses HBV replication, while its removal switches on the process allowing HBV viral particles release in the cell supernatant. HepAD38 cell line is maintained in DMEM/F12, supplemented with 10% of fetal bovine serum, 1% of glutamine, 1% of penicillin/streptomycin, 0.4 mg/ml G418 and 0,3 ug/ml tetracycline. For the HBV inhibition assay, doxycycline-free medium is used in order to allow virion production.
HBV inhibition activity in vitro was performed in 96 multiwell plates. During the initial (primary) screening, compounds were first tested in triplicates at concentrations of 0.02 µM, 0.1µM, 0.5µM and 1µM. For selected compounds, an 8-point dose-response curve was obtained using 1:2 serial dilutions (starting from 0.01µM, 0.1µM, 0.4µM or 5 µM, depending on the degree of inhibition observed during the primary screening). From the dose-response curves, half maximal effective concentration (EC50) could be calculated (see also below).
In more detail, compounds - typically dissolved in DMSO stock solutions - were diluted to 2x the final desired concentration in 100 µl of the above medium (without doxycycline) and plated in three replicates in the 96-well plates.
Simultaneously, HepAD38 cells - extensively pre-washed in tetracycline-free medium in order to induce HBV production - were suspended at 2^∗10^4 cells in 100 µl of tetracycline-free medium and added to each well of the plate, to yield a final assay volume of 200 µl DMSO - used for stock solutions and compounds dilutions - which was always present in the assays at a final concentration of 0.5%.
Plates were then incubated 96 hours at 37°C and then subjected to cell viability assays and extracellular HBV quantification, in order to evaluate both the cytotoxic potential and the antiviral activity of compounds. Cytotoxicity was assessed by a commercial fluorescence assay that measures the metabolic activity of cells, directly related to cell viability (Cell Titer Blue, Promega). Anti-HBV activity was evaluated by quantification of extracellular HBV DNA with direct qPCR. In particular, supernatant was collected and centrifuged for cell debris clarification, viral DNA was extracted from virions by addition of lysis buffer (1 mM 1,4-dithiothreitol, 0.2% sodium dodecyl sulphate) and incubated at 95°C for 10 min. Samples were then diluted 1:40 and real time PCR amplification was performed with SYBR green assay (Power SYBR™ Green PCR Master Mix-Thermo Fisher Scientific) and specific HBV primer (HBV-DF:5'-[…]-3' (SEQ ID No. 1), HBV-DR:5'-[…]-3' (SEQ ID No. 2)).
Antiviral activity data for each compound are reported as EC50 threshold value (see Table 1 legend). Excel and Graphpad Prism programs are typically used for data elaboration and EC50 calculation.

The term EC50 denotes the concentration giving half of the maximal effect.

SMILES strings stand for the structures. A value given as a limit tells only on which side of the number the result lay.

Regarding `C[C@@H](NC(=O)C(=O)N1C[C@H]2COc3c(c(Cl)n(C)c3C(=O)Nc3ccc(F)c(C(F)F)c3)S(=O)(=O)N[C@H]2C1)C(F)(F)F` [Example E7, (3aR,10aR)-6-chloro-N-(3-(difluoromethyl)-4-fluorophenyl)-7-methyl-2-(2-oxo-2-(((R)-1,1,1-trifluoropropan-2-yl)amino)acetyl)-2,3,3a,4,10,10a-hexahydro-1H,7H-dipyrrolo[3,4-b:3',4'-f][1,4,5]oxathiazocine-8-carboxamide 5,5-dioxide], the EC50 is less than 500 nM.

For `Cc1cc(NC(=O)c2c3c(c(Cl)n2C)S(=O)(=O)N[C@H]2CN(C(=O)C(=O)N[C@H](C)C(F)(F)F)C[C@H]2CO3)ccc1F` [Example E9, (3aR,10aR)-6-chloro-N-(4-fluoro-3-methylphenyl)-7-methyl-2-(2-oxo-2-(((R)-1,1,1-trifluoropropan-2-yl)amino)acetyl)-2,3,3a,4,10,10a-hexahydro-1H,7H-dipyrrolo[3,4-b:3',4'-f][1,4,5]oxathiazocine-8-carboxamide 5,5-dioxide], the EC50 was less than 500 nM.

Take `C[C@@H](NC(=O)C(=O)N1C[C@H]2COc3c(c(Cl)n(C)c3C(=O)Nc3ccc(F)c(F)c3)S(=O)(=O)N[C@H]2C1)C(F)(F)F` [Example E6, (3aR,10aR)-6-chloro-N-(3,4-difluorophenyl)-7-methyl-2-(2-oxo-2-(((R)-1,1,1-trifluoropropan-2-yl)amino)acetyl)-2,3,3a,4,10,10a-hexahydro-1H,7H-dipyrrolo[3,4-b:3',4'-f][1,4,5]oxathiazocine-8-carboxamide 5,5-dioxide]: the concentration giving a half-maximal response (EC50) is less than 500 nM.

`C[C@@H](NC(=O)C(=O)N1C[C@H]2COc3c(cn(C)c3C(=O)Nc3ccc(F)c(C(F)F)c3)S(=O)(=O)N[C@H]2C1)C(F)(F)F` [Example E3, (3aR,10aR)-N-(3-(difluoromethyl)-4-fluorophenyl)-7-methyl-2-(2-oxo-2-(((R)-1,1,1-trifluoropropan-2-yl)amino)acetyl)-2,3,3a,4,10,10a-hexahydro-1H,7H-dipyrrolo[3,4-b:3',4'-f][1,4,5]oxathiazocine-8-carboxamide 5,5-dioxide]: the EC50 is less than 500 nM.

As for `C[C@@H](NC(=O)C(=O)N1C[C@H]2COc3c(cn(C)c3C(=O)Nc3ccc(F)c(C(F)(F)F)c3)S(=O)(=O)N[C@H]2C1)C(F)(F)F` [Example E4, (3aR,10aR)-N-(4-fluoro-3-(trifluoromethyl)phenyl)-7-methyl-2-(2-oxo-2-(((R)-1,1,1-trifluoropropan-2-yl)amino)acetyl)-2,3,3a,4,10,10a-hexahydro-1H,7H-dipyrrolo[3,4-b:3',4'-f][1,4,5]oxathiazocine-8-carboxamide 5,5-dioxide], the 50% effective concentration (EC50) is less than 500 nM.

`C[C@@H](NC(=O)C(=O)N1C[C@H]2COc3c(cn(C)c3C(=O)Nc3ccc(F)c(F)c3)S(=O)(=O)N[C@H]2C1)C(F)(F)F` [Example E2, (3aR,10aR)-N-(3,4-difluorophenyl)-7-methyl-2-(2-oxo-2-(((R)-1,1,1-trifluoropropan-2-yl)amino)acetyl)-2,3,3a,4,10,10a-hexahydro-1H,7H-dipyrrolo[3,4-b:3',4'-f][1,4,5]oxathiazocine-8-carboxamide 5,5-dioxide]: the EC50 was less than 500 nM.

For `C[C@@H](NC(=O)C(=O)N1C[C@H]2COc3c(c(Cl)n(C)c3C(=O)Nc3ccc(F)c(Cl)c3)S(=O)(=O)N[C@H]2C1)C(F)(F)F` [Example E5, (3aR,10aR)-6-chloro-N-(3-chloro-4-fluorophenyl)-7-methyl-2-(2-oxo-2-(((R)-1,1,1-trifluoropropan-2-yl)amino)acetyl)-2,3,3a,4,10,10a-hexahydro-1H,7H-dipyrrolo[3,4-b:3',4'-f][1,4,5]oxathiazocine-8-carboxamide 5,5-dioxide], the EC50 is less than 500 nM.

In the case of `C[C@@H](NC(=O)C(=O)N1C[C@H]2COc3c(cn(C)c3C(=O)Nc3ccc(F)c(Cl)c3)S(=O)(=O)N[C@H]2C1)C(F)(F)F` [Example E1, (3aR,10aR)-N-(3-chloro-4-fluorophenyl)-7-methyl-2-(2-oxo-2-(((R)-1,1,1-trifluoropropan-2-yl)amino)acetyl)-2,3,3a,4,10,10a-hexahydro-1H,7H-dipyrrolo[3,4-b:3',4'-f][1,4,5]oxathiazocine-8-carboxamide 5,5-dioxide], the EC50 is less than 500 nM.

As to `C[C@@H](NC(=O)C(=O)N1C[C@H]2COc3c(c(Cl)n(C)c3C(=O)Nc3ccc(F)c(C(F)(F)F)c3)S(=O)(=O)N[C@H]2C1)C(F)(F)F` [Example E8, (3aR,10aR)-6-chloro-N-(4-fluoro-3-(trifluoromethyl)phenyl)-7-methyl-2-(2-oxo-2-(((R)-1,1,1-trifluoropropan-2-yl)amino)acetyl)-2,3,3a,4,10,10a-hexahydro-1H,7H-dipyrrolo[3,4-b:3',4'-f][1,4,5]oxathiazocine-8-carboxamide 5,5-dioxide], the EC50 is less than 500 nM.

For the origin of these results see patent EP3825318A1, “OXALAMIDO-SUBSTITUTED TRICYCLIC INHIBITORS OF HEPATITIS B VIRUS” (priority 2019, dated 2021).
